Laboratory results taken from patent US20210214560A1, “COMPOUND, COLORING COMPOSITION, INK, TONER, COLORING RESIN COMPOSITION, AND COMPOSITION FOR DYEING FIBER” (FUJIFILM Corporation, priority 2018, published 2021).

Columns and labels:
Format in all cases: physicochemical
[1] = Evaluation of heat stability (heat resistance), powder heated at 180° C. for 5 minutes; settings: oven 180° C. for 5 minutes, A/A0×100, absorbance in tetrahydrofuran
Description: Heat stability of each compound was evaluated by the following procedure. 10 mg of the powder of each compound was dissolved in 500 mL of tetrahydrofuran, and the absorption spectrum was measured to obtain a reference absorbance (A0). On the other hand, 10 mg of the powder of each compound was weighed in a 4 cm square aluminum cup, placed in an oven, and heated at 180° C. for 5 minutes. The entire amount of the powder after heating was dissolved in 500 mL of tetrahydrofuran, and the absorption spectrum was measured to obtain an absorbance (A) after the heating test. The residual rate of each compound was calculated by the following expression to evaluate heat stability.
Residual rate of compound (%)=A/A0×100

[2] = Production of coloring resin composition (kneading with polybutylene terephthalate at 190° C.); settings: 1 g colorant with 100 g polybutylene terephthalate, biaxial extruder, cylinder temperature 190° C.
Description: Using a henschel mixer, a blend of 100 g of polybutylene terephthalate (manufactured by Wintech Polymer Ltd., trade name, DURANEX 2002, melting point: 225° C.) and 1 g of the compound according to the embodiment of the present invention (compound (1-48)) was supplied to a biaxial extruder (equipment: TEX28V manufactured by Japan Steel Works, Ltd., screw speed: 200 rotations per minute (rpm)), and kneading was performed at a cylinder temperature of 190° C. to obtain a coloring resin pellet (coloring resin composition). The torque of the extruder was stable and extrusion could be continued, and the discharged strands could be stably conveyed to the pelletizer.
A coloring resin pellet was obtained in the same manner as in Example 25, except that the compound (1-48) of Example 25 was changed to OIL BLACK HBB (manufactured by Orient Chemical Industries Co., Ltd., trade name).

[3] = Evaluation of maximum absorption wavelength (absorption spectrum in tetrahydrofuran solution); settings: 1×10^−6 mol/L, optical path length 10 mm (Table 7)
[4] = Production of toner (melting and mixing with resin at 150° C.); settings: 3 g compound with 100 g styrene-acrylic acid ester copolymer, melted and mixed at 150° C.
Description: After mixing and pulverizing 3 g of the compound according to the embodiment of the present invention (compound (1-36)) and 100 g of a resin for toner [styrene-acrylic acid ester copolymer; HIMER TB-1000F (trade name, manufactured by Sanyo Chemical Industries, Ltd.)] with a ball mill, the resultant was heated at 150° C. to be melted and mixed, and the results were cooled, roughly pulverized using a hammer mill, and then finely pulverized using a fine pulverizer with an air-jet system. Furthermore, particles which have a particle diameter of 1 to 20 μm were classified and selected to produce a toner.
900 g of carrier iron powder (EFV250/400, trade name, manufactured by Powdertech Co., Ltd.) were uniformly mixed with 10 g of the toner to prepare a developer. Using this developer, copying was performed with a dry type plain paper electrophotographic copier [NP-5000, trade name, manufactured by Canon Inc.].

Compound: CC(=O)c1ccccc1N=Nc1ccc(N=Nc2ccc3c4c(cccc24)NC(C)(C)N3)c2ccccc12 [(1-48)]
- Residual rate of compound [1]: 99%
- Contamination due to pyrolysis in kneading of coloring resin pellet [2]: No contamination due to pyrolysis was observed
- Absorption maximum wavelength [3]: 624 nm
- Molar light absorption coefficient [3]: 34,100 L · mol^−1 · cm^−1

Compound: CC1(C)Nc2cccc3c(N=Nc4ccc(N=Nc5ccccc5[N+](=O)[O-])c5ccccc45)ccc(c23)N1 [(1-36)]
- Pyrolysis in melting and mixing in the toner production [4]: Pyrolysis in melting and mixing in the toner production was reduced
- Residual rate of compound [1]: 98%
- Absorption maximum wavelength [3]: 638 nm
- Molar light absorption coefficient [3]: 30,100 L · mol^−1 · cm^−1
